Data on two compounds can be found in patent US8399466B2, “Composition for regenerative treatment of cartilage disease” (Mitsubishi Tanabe Pharma Corporation, priority 2001, dated 2013).

Experiment [1] has as its system rabbit articular chondrocytes. Briefly: Matrix production of rabbit articular chondrocytes in the presence of IL-1. Format: cell-based. The conditions noted are these: 1 × 10^−6 M; IL-1β 1 ng/ml; until day 3; vehicle = 100. As to the method: Four NZW line rabbits (Kitayama Labes., Co Ltd.; male; 4-week-old) were sacrificed with bleeding under ether anesthesia and knee joints of femur side were collected aseptically. Only the cortical layer was scrapped with a surgical knife in phosphate buffer (pH 7.2) containing 0.2% glucose and then placed into a 50 ml tube containing phosphate buffered saline containing 0.2% glucose. The collected knee joint cortical layer was cut into as small sections as possible on a dish with a razor, combined with 50 ml of phosphate buffer (100 mg trypsin, 40 mg EDTA·4 Na; pH 7.2) containing 0.2% glucose, supplied with 10× trypsin-ethylenediamine tetraacetic acid tetra sodium salt (EDTA·4Na: GIBCO; Cat. No. 15400-054) and shaken at 37° C. for 15 minutes.
After shaking, the precipitates were collected by centrifugation (1,400 rpm) and washed twice with 40 ml of phosphate buffer (pH 7.2) with 0.2% glucose.
To the washed precipitates was added 40 ml of α-minimum essential medium (MEM: GIBCO; Cat. No. 12571-063) containing 60 mg of collagenase for cell diffusion (Wako Pure Chemical Industries, Ltd., 034-10533) and antibiotics (200 U/ml penicillin G and 200 μg/ml streptomycin sulfate) (GIBCO; Cat. No. 15140-122), and the mixture was transferred to a 100 ml beaker containing a sterilized stirrer bar.
The incubation was conducted in a CO2 incubator at 37° C. for 30 minutes under stirring with a stirrer bar. Deoxyribonuclease I (Takara Shuzo Co., LTD.; Cat. No. 2210A) was then added at a concentration of 70 U/ml. The cultivation was conducted under the same condition for another 30 minutes. The supernatant of the culture was collected in another vessel and the remaining cartilage slips were then cultured again for about 30 minutes in freshly prepared α-minimum essential medium containing 60 mg of collagenase and 70 U/m1 deoxyribonuclease I.
To the previously collected culture supernatant and the last culture, from which cartilage slips had been removed using a 40 μm Cell Strainer (FALCON; Cat. No. 2340), 10 ml of α-minimum essential medium (MEM: GIBCO; Cat. No. 12571-063) containing 10% fetal calf serum (GIBCO Cat. No. 10099-141) and antibiotics (200 U/ml penicillin G and 200 μg/ml streptomycin sulfate) (GIBCO; Cat. No. 15140-122) was added and centrifuged (1,400 rpm, 10 minutes).
The precipitates were washed twice with α-minimum essential medium containing 10% fetal calf serum and antibiotics, suspended with an appropriate volume of the same medium, and seeded into 48-well plates (20,000 cells/well). […]
After staining, the cells were washed 3 times with 1 ml of phosphate buffer (pH 7.2). Alcian blue which had stained cartilage matrix was dissolved with 0.25 ml of 6 M aqueous guanidine hydrochloride solution and a portion of which was used to determine the absorbance at 620 nm. […]

The subject of experiment [2] is human articular chondrocytes. Put plainly: Increase of intracellular cAMP in human articular chondrocytes (cAMP EIA). Format: cell-based. The conditions noted are these: PGE2 1 μM, 30 minutes, vehicle 0.4. As to the method:
Human articular cartilage (articular cartilage of degenerative malum coxae patient) was soaked in phosphate buffer (pH 7.2) and only the cortical layer of the joint portion was scrapped with, a knife into a 50 ml tube containing same buffer. The collected knee joint cortical layer was cut into as small sections as possible on a dish with a razor and transferred to a centrifuge tube.
To the centrifuge tube, phosphate buffer (pH 7.2) containing 1 mg/ml of hyaluronidase (SIGMA: Cat. No. H-3506) was added and shaken at 37° C. for 15 minutes. The precipitates were separated by centrifugation (2,000 rpm, 5 minutes) and added to Hank's balanced salt solution (GIBCO; Cat. No. 15050-065) containing 0.25% trypsin and shaken at 37° C. for 30 minutes.
After separation of precipitates by centrifugation (2,000 rpm, 5 minutes), α-minimum essential medium (GIBCO; Cat. No. 12571-063) containing 0.25% collagenase for cell diffusion (Wako Pure Chemical Industries, Ltd., 034-10533) and 10% fetal calf serum (GIBCO; Cat. No. 10099-141) were added to the precipitates and shaken at 37° C. overnight.
Cartilage fragments were removed using a 40 μm Cell Strainer (FALCON; Cat. No. 2340), and α-minimum essential medium containing 10% fetal calf serum was added to the collagenase-treated cells and centrifuged (1,400 rpm, 10 minutes).
The precipitates were washed three times with α-minimum essential medium containing 10% fetal calf serum and suspended in the same medium to an appropriate volume and seeded into 48-well plates (50,000 cells/well). On the next day, the medium was replaced with α-minimum essential medium containing 10% fetal calf serum. The α-minimum essential medium used contained antibiotics (100 U/ml penicillin G and 100 μg/ml streptomycin sulfate) and an antifungal (0.25 μg/ml amphotericin B) (GIBCO; Cat. No. 15240-062). […]
After 30 minutes cultivation, medium was discarded. […] The residue was dissolved in an assay buffer attached with cAMP EIA system (Amersham Pharmacia Biotech; Cat. No. RPN225) and cAMP concentration was measured with said system.

For `CCOc1cc2cc(CO)c(CO)c(-c3ccnc(-n4nc(-c5cccnc5)c5ccccc5c4=O)c3)c2cc1OCC` [Compound (2)], the “Proteoglycan Production (%)” value in experiment [1] is reported as 143%. In addition, the “cAMP Production (picomol/well)” value in experiment [2] (1 × 10^−5) was found to be 23.2 picomol/well; in experiment [2] (1 × 10^−6), 13.8 picomol/well.

Take `COc1ccc(C(=O)Nc2c(Cl)cncc2Cl)cc1OC1CCCC1` [Compound (11)]: the “Proteoglycan Production (%)” value in experiment [1] stood at 121%. Further, the “cAMP Production (picomol/well)” value in experiment [2] (1 × 10^−5) is 10.6 picomol/well.
